Experimental data as given in ChEMBL document CHEMBL5550121, “Expanding the ligand spaces for E3 ligases for the design of protein degraders” (Bioorg Med Chem, 2024).

Columns and labels:
[1] = Inhibition of p38 (unknown origin)
Polycomb protein EED = Polycomb protein EED (Homo sapiens, UniProt O75530); test: Inhibition of EED (unknown origin) by ELISA based assay
Sequence of Polycomb protein EED (O75530 whole entry): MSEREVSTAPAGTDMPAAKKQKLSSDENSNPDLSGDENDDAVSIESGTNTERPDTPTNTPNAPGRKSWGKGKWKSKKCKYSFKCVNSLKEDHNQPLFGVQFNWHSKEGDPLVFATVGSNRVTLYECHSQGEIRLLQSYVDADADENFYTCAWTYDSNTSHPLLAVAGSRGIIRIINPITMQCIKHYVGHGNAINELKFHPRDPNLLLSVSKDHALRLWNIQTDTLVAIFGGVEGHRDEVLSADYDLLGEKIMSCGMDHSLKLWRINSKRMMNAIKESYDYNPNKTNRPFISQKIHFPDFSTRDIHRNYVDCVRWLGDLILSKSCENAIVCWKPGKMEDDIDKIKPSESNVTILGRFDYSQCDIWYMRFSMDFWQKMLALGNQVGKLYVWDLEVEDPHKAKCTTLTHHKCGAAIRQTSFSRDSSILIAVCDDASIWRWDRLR

IC50 [1] | IC50 (Polycomb protein EED) | Compound
11 µM |  | COc1cc2c(Oc3ccc(NC(=O)C4(C(=O)Nc5ccc(F)cc5)CC4)cc3F)ccnc2cc1OCCCN1CCOCC1 [FORETINIB]
 | 0.026 µM | Cc1ncccc1-c1cnc(NCc2c(F)ccc3c2CCO3)n2cnnc12
